Test results from publication PMC5749703, “Isolation and characterization of a novel metagenomic enzyme capable of degrading bacterial phytotoxin toxoflavin” (PLoS ONE, 2018).

System: T1, TxeA
T1 construct: no evidence of oligomer
Assay: toxoflavin degradation, initial velocities (HPLC)
Assay type: biochemical, uncultured bacterium
Conditions: pH 5.0, 20°C; Mn2+, DTT and oxygen required (DTT reduces toxoflavin to dihydrotoxoflavin)
Method: toxoflavin degradation, initial velocities (HPLC) on TxeA | apparent binding constants of substrate (KM) and catalytic efficiency (kcat/KM) for TxeA were determined

**Q.** For `Cn1ncnc2c(=O)n(C)c(=O)nc1-2` [toxoflavin, 1,6-dimethylpyrimido[5,4-e]-1,2,4-triazine-5,7(1H,6H)-dione], which Km is on record?
**A.** 14 µM
